Test results: EP4796557A1, “POLYPEPTIDE, BIOACTIVE CONJUGATE, AND PREPARATION METHOD THEREFOR AND USE THEREOF” (priority 2023, dated 2025)
Square brackets hold non-standard residues; d marks the D form. Peptide text beside a SMILES is read from it. Cit = NC(=O)NCCC[C@H](N)C(=O)O

Legend:
MMP9 = MMP9 (Homo sapiens, UniProt P14780); assay: Enzymolysis assay of polypeptides by MMP9 (RP-HPLC); assay type: biochemical; details: polypeptide 100 µmol with activated MMP9, 37°C, 4 h, RP-HPLC peak areas
Protocol: (§1) First, MMP2 or MMP9 enzyme solution having a final concentration of 200 µg/mL was mixed with 4 mM APMA at a ratio of 1:1, placed in a 37°C water bath and incubated for 24 h to activate the MMP2 or MMP9 enzyme solution. Subsequently, the test polypeptide having a final concentration of 100 µmol was incubated with the activated MMP2 or MMP9 enzyme solution in a 37°C water bath for 4 h. After the reaction was complete, an equal volume of acetonitrile solution was added thereto, followed by RP-HPLC analysis.
(§2) The enzymolysis efficiency of the polypeptide was calculated based on the peak areas of the target peak before and after enzymolysis. The formula is as follows: Enzymolysis efficiency = […] [formula]

MMP2 = target: T1, MMP2 (Homo sapiens, UniProt P08253); assay: Enzymolysis assay of polypeptides by MMP2 (RP-HPLC); assay type: biochemical; details: test polypeptide 100 µmol, activated MMP2, 37°C, 4 h
T1 sequence (P08253 110-660): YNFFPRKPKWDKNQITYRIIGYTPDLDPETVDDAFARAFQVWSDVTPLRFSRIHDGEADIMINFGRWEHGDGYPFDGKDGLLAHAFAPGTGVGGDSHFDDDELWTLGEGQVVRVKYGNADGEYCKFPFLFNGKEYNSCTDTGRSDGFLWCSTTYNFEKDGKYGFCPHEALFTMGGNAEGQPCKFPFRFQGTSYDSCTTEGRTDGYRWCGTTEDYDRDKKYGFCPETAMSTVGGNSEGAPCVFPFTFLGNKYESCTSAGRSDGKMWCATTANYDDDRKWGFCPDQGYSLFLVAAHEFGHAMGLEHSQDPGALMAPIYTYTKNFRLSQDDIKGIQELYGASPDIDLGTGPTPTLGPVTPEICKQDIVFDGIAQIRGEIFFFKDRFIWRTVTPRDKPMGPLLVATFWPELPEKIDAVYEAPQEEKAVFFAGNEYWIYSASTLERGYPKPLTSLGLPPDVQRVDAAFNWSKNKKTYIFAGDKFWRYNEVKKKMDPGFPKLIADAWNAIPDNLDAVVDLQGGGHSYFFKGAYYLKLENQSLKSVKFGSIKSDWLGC
Protocol: as §1, §2

Sequence of MMP9 (P14780 107-707 limits assumed, species assumed): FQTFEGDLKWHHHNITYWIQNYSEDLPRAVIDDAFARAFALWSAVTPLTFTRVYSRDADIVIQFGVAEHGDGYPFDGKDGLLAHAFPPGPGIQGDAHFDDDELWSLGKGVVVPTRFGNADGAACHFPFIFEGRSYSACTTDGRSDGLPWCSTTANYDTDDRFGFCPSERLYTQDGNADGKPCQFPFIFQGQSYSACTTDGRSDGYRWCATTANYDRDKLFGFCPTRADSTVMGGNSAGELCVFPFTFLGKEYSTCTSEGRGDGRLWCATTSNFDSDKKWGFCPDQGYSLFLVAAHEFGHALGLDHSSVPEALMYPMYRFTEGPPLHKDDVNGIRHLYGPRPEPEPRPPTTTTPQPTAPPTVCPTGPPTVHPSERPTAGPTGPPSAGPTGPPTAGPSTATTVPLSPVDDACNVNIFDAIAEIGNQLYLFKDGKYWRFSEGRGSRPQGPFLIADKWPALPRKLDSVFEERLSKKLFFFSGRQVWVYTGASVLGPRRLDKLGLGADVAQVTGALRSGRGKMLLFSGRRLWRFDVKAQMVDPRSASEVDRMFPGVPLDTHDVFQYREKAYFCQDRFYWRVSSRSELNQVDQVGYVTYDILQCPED

| Molecule | Enzymolysis efficiency (%) (MMP9) | Enzymolysis efficiency (%) (MMP2) |
| --- | --- | --- |
| Ac-GPRGLGGFG-NH2 [Compound 1-P23] | 84.66 | 89.54 |
| Ac-GPQGLGGFG-NH2 [Compound 1-P20] | 32.62 | 51.36 |
| CC(=O)NCC(=O)N1CCC[C@H]1C(=O)N[C@@H](C)C(=O)N[C@@H](C)C(=O)N[C@@H](CC(C)C)C(=O)N[C@H](C(=O)N[C@@H](CCCNC(N)=O)C(N)=O)C(C)C [Compound 1-P12] (Ac-GPAALV[Cit]-NH2) | 20.93 | 38.94 |
| CC[C@H](C)[C@H](NC(C)=O)C(=O)N1CCC[C@H]1C(=O)N[C@H](C(=O)N[C@@H](CO)C(=O)N[C@@H](CC(C)C)C(=O)N[C@H](C(=O)N[C@@H](CCCNC(N)=O)C(N)=O)C(C)C)C(C)C [Compound 1-P4] (Ac-IPVSLV[Cit]-NH2) | 18.84 | 21.87 |
| Ac-IPVSLGGFG-NH2 [Compound 1-P16] | 13.30 | 13.02 |
| Ac-GPAGLGGFG-NH2 [Compound 1-P19] | 29.28 | 89.82 |
| CC(=O)NCC(=O)N1CCC[C@H]1C(=O)N[C@@H](CO)C(=O)NCC(=O)N[C@@H](CC(C)C)C(=O)N[C@H](C(=O)N[C@@H](CCCNC(N)=O)C(N)=O)C(C)C [Compound 1-P10] (Ac-GPSGLV[Cit]-NH2) | 27.93 | 75.95 |
| CC(=O)NCC(=O)N1CCC[C@H]1C(=O)N[C@@H](CC(C)C)C(=O)NCC(=O)N[C@@H](CC(C)C)C(=O)N[C@H](C(=O)N[C@@H](CCCNC(N)=O)C(N)=O)C(C)C [Compound 1-P9] (Ac-GPLGLV[Cit]-NH2) | 68.34 | 81.75 |
| CC(=O)NCC(=O)N1CCC[C@H]1C(=O)N[C@@H](CCCNC(=N)N)C(=O)NCC(=O)N[C@@H](CC(C)C)C(=O)N[C@H](C(=O)N[C@@H](CCCNC(N)=O)C(N)=O)C(C)C [Compound 1-P11] (Ac-GPRGLV[Cit]-NH2) | 81.51 | 86.82 |
| CC(=O)N1CCC[C@H]1C(=O)N[C@@H](CCCNC(=N)N)C(=O)N1CCC[C@H]1C(=O)N[C@@H](CC(C)C)C(=O)N[C@H](C(=O)N[C@@H](CCCNC(N)=O)C(N)=O)C(C)C [Compound 2-P4] (Ac-PRPLV[Cit]-NH2) | 61.01 | 46.14 |
| Ac-VPLSLGGFG-NH2 [Compound 1-P15] | 33.25 | 40.90 |
| Ac-GPLSLGGFG-NH2 [Compound 1-P17] | 27.26 | 37.27 |
| Ac-GPLGLGGFG-NH2 [Compound 1-P21] | 75.60 | 90.43 |
| CC(=O)N[C@@H](CO)C(=O)N1CCC[C@H]1C(=O)N[C@@H](CCCNC(=N)N)C(=O)N[C@@H](CO)C(=O)N[C@@H](CC(C)C)C(=O)N[C@H](C(=O)N[C@@H](CCCNC(N)=O)C(N)=O)C(C)C [Compound 2-P19] (Ac-SPRSLV[Cit]-NH2) | 79.26 | 55.76 |
| Ac-GPASLGGFG-NH2 [Compound 1-P18] | 9.10 | 68.38 |
| CC(=O)N[C@@H](Cc1c[nH]cn1)C(=O)N[C@H](C(=O)N[C@@H](CC(C)C)C(=O)N[C@@H](CC(N)=O)C(=O)N[C@@H](CC(C)C)C(=O)N[C@H](C(=O)N[C@@H](CCCNC(N)=O)C(N)=O)C(C)C)C(C)C [Compound 1-P2] (Ac-HVLNLV[Cit]-NH2) |  | 14.28 |

Continued, values first:

| Enzymolysis efficiency (%) (MMP9) | Enzymolysis efficiency (%) (MMP2) | Molecule |
| --- | --- | --- |
| 37.13 | 96.89 | Ac-GPAALGGFG-NH2 [Compound 1-P24] |
| 79.34 | 53.20 | CC(=O)N1CCC[C@H]1C(=O)N[C@@H](CCCNC(=N)N)C(=O)N[C@@H](CO)C(=O)N[C@@H](CC(C)C)C(=O)N[C@H](C(=O)N[C@@H](CCCNC(N)=O)C(N)=O)C(C)C [Compound 2-P2] (Ac-PRSLV[Cit]-NH2) |
| 38.72 | 45.97 | CC(=O)N[C@@H](CO)C(=O)N1CCC[C@H]1C(=O)N[C@@H](CCCNC(N)=O)C(=O)N1CCC[C@H]1C(=O)N[C@@H](CC(C)C)C(=O)N[C@H](C(=O)N[C@@H](CCCNC(N)=O)C(N)=O)C(C)C [Compound 2-P24] (Ac-SP[Cit]PLV[Cit]-NH2) |
| 64.81 | 53.54 | CC(=O)N[C@@H](Cc1c[nH]cn1)C(=O)N1CCC[C@H]1C(=O)N[C@@H](CCCNC(N)=O)C(=O)NCC(=O)N[C@@H](CC(C)C)C(=O)N[C@H](C(=O)N[C@@H](CCCNC(N)=O)C(N)=O)C(C)C [Compound 2-P16] (Ac-HP[Cit]GLV[Cit]-NH2) |
| 45.37 | 85.08 | CC(=O)NCC(=O)N1CCC[C@H]1C(=O)N[C@@H](C)C(=O)N1CCC[C@H]1C(=O)N[C@@H](CC(C)C)C(=O)N[C@H](C(=O)N[C@@H](CCCNC(N)=O)C(N)=O)C(C)C [Compound 2-P25] (Ac-GPAPLV[Cit]-NH2) |
| 84.35 | 100.00 | CC(=O)NCC(=O)N1CCC[C@H]1C(=O)N[C@@H](C)C(=O)N[C@@H](CC(N)=O)C(=O)N[C@@H](CC(C)C)C(=O)N[C@H](C(=O)N[C@@H](CCCNC(N)=O)C(N)=O)C(C)C [Compound 2-P26] (Ac-GPANLV[Cit]-NH2) |
| 45.82 | 40.95 | CC(=O)NCC(=O)N1CCC[C@H]1C(=O)N[C@@H](CCCNC(N)=O)C(=O)N1CCC[C@H]1C(=O)N[C@@H](CC(C)C)C(=O)N[C@H](C(=O)N[C@@H](CCCNC(N)=O)C(N)=O)C(C)C [Compound 2-P11] (Ac-GP[Cit]PLV[Cit]-NH2) |
| 97.39 | 66.36 | CC(=O)N1CCC[C@H]1C(=O)N[C@@H](CCCNC(=N)N)C(=O)N[C@@H](CC(N)=O)C(=O)N[C@@H](CC(C)C)C(=O)N[C@H](C(=O)N[C@@H](CCCNC(N)=O)C(N)=O)C(C)C [Compound 2-P3] (Ac-PRNLV[Cit]-NH2) |
| 81.06 | 57.42 | CC(=O)N[C@@H](Cc1c[nH]cn1)C(=O)N1CCC[C@H]1C(=O)N[C@@H](CCCNC(=N)N)C(=O)N[C@@H](CO)C(=O)N[C@@H](CC(C)C)C(=O)N[C@H](C(=O)N[C@@H](CCCNC(N)=O)C(N)=O)C(C)C [Compound 2-P13] (Ac-HPRSLV[Cit]-NH2) |
| 93.84 | 86.03 | CC(=O)N[C@@H](CO)C(=O)N1CCC[C@H]1C(=O)N[C@@H](CCCNC(=N)N)C(=O)NCC(=O)N[C@@H](CC(C)C)C(=O)N[C@H](C(=O)N[C@@H](CCCNC(N)=O)C(N)=O)C(C)C [Compound 2-P18] (Ac-SPRGLV[Cit]-NH2) |
| 73.74 | 55.25 | CC(=O)N[C@@H](CO)C(=O)N1CCC[C@H]1C(=O)N[C@@H](CCCNC(N)=O)C(=O)NCC(=O)N[C@@H](CC(C)C)C(=O)N[C@H](C(=O)N[C@@H](CCCNC(N)=O)C(N)=O)C(C)C [Compound 2-P22] (Ac-SP[Cit]GLV[Cit]-NH2) |
